This is an account of results in patent US7375111B2, “Compositions for affecting weight loss” (priority 2003, dated 2008).

“And” between values parts separate entries of the source, which are not always exact repeats. Equal entries are not always repeated.

One data set deals with C57/B16J mice. Nature of the data set: Dose-response experiments: cumulative food intake after intraperitoneal injection in fasted mice. To be noted: food removed the day before.
The subject of data set [1] is POMC neurons. Nature of the data set: Electrophysiology: cell-attached recordings of action potential frequency of POMC-EGFP neurons in hypothalamic (ARC) slices. The note with it: applied to the bath for 3 min.
The subject of data set [2] is POMC neurons. To be noted: Heisler et al., Science 297(5581):609-11 (2002); cited from earlier work.
For data set [3] the following is noted: in vivo; cited from earlier work.

In the case of `Cc1c(C(=O)NN2CCCCC2)nn(-c2ccc(Cl)cc2Cl)c1-c1ccc(I)cc1` [AM 251, N-(piperidin-1-yl)-1-(2,4-dichlorophenyl)-5-(4-iodophenyl)-4-methyl-1H-pyrazole-3-carboxamide], the “Cumulative food intake expressed as a proportion of the food intake in saline treated animals, MEAN” value (shortened to “Cumulative food intake expressed”) was 0.97 in the data set with C57/B16J mice (Hour 1 post-injection); 0.85 in the data set with C57/B16J mice (Hour 2 post-injection); 0.88 in the data set on C57/B16J mice (Hour 4 post-injection); 0.90 in the data set on C57/B16J mice (Hour 8 post-injection); 0.99 in the data set on C57/B16J mice (headed Hour 8 a second time).
With `CC(NC(C)(C)C)C(=O)c1cccc(Cl)c1` (centres unmarked) [Bupropion, bupropion], the “Cumulative food intake expressed” value came out at 0.32 in the data set with C57/B16J mice (Hour 1 post-injection); 0.64 with C57/B16J mice (Hour 2 post-injection); 0.97 in the data set with C57/B16J mice (Hour 4 post-injection); 0.96 in the data set with C57/B16J mice (Hour 8 post-injection); 0.99 in the data set on C57/B16J mice (headed Hour 8 a second time).
On to `NCCc1ccc(O)c(O)c1` [Dopamine], for which the “Mean effect of the drug alone on firing rate, normalized to the pre-treatment frequency” value in the data set with POMC neurons [1] is 11X (n = 9).
As for `CCNC(C)Cc1cccc(C(F)(F)F)c1` (centres unmarked) [Fenfluramine, fenfluramine], the “Mean effect of the drug alone on firing rate, normalized to the pre-treatment frequency” value with POMC neurons [1] is given as 2X increase (n = 6). Besides, the “Effect of fenfluramine alone” value with POMC neurons [2] is 200%.
For `CNCCC(Oc1ccc(C(F)(F)F)cc1)c1ccccc1` (centres unmarked) [Fluoxetine, fluoxetine], the “Cumulative food intake expressed” value with C57/B16J mice (Hour 1 post-injection) is 0.36; in the data set on C57/B16J mice (Hour 2 post-injection) it was 0.57; in the data set on C57/B16J mice (Hour 4 post-injection), 0.68; with C57/B16J mice (Hour 8 post-injection) it was 0.76; with C57/B16J mice (headed Hour 8 a second time), 1.05. Further, the “Mean effect of the drug alone on firing rate, normalized to the pre-treatment frequency” value in the data set with POMC neurons [1] is reported as 3X (n = 1). In addition, the Physiological half life entry in data set [3] is listed as “about 9 hours”.
With `COCCCC/C(=N\OCCN)c1ccc(C(F)(F)F)cc1` [Fluvoxamine, fluvoxamine], the “Cumulative food intake expressed” value in the data set on C57/B16J mice (Hour 1 post-injection) was 0.77; in the data set on C57/B16J mice (Hour 2 post-injection), 0.85; with C57/B16J mice (Hour 4 post-injection), 0.95; with C57/B16J mice (Hour 8 post-injection) it was 0.91; in the data set with C57/B16J mice (headed Hour 8 a second time), 0.92.
Turning to `C=C1CC[C@@]2(O)[C@H]3Cc4ccc(O)c5c4[C@@]2(CCN3CC2CC2)[C@H]1O5` [Nalmefene, nalmefene], the “Cumulative food intake expressed” value is 0.0083 in the data set on C57/B16J mice (Hour 1 post-injection); 0.11 in the data set with C57/B16J mice (Hour 2 post-injection); 0.57 in the data set with C57/B16J mice (Hour 4 post-injection); 0.81 in the data set with C57/B16J mice (Hour 8 post-injection); 0.98 with C57/B16J mice (headed Hour 8 a second time).
Turning to `O=C1CC[C@@]2(O)[C@H]3Cc4ccc(O)c5c4[C@@]2(CCN3CC2CC2)[C@H]1O5` [Naltrexone, naltrexone], the “Cumulative food intake expressed” value in the data set with C57/B16J mice (Hour 1 post-injection) is 0.41 and 0.30; in the data set on C57/B16J mice (Hour 2 post-injection), 0.77 and 0.56; with C57/B16J mice (Hour 4 post-injection), 0.99 and 0.83; in the data set with C57/B16J mice (Hour 8 post-injection) it was 1.1 and 0.98; with C57/B16J mice (headed Hour 8 a second time), 0.98 and 1.01.
